EC50 data for 1 substance are collected here from patent US5424394A, “Synthetic preparation of amylin and amylin analogues” (priority 1993, dated 1995).

The subject of the experiment is isolated rat soleus muscle. Description: insulin-stimulated incorporation of labelled glucose into glycogen in isolated rat soleus muscle (soleus muscle assay). The format is cell-based. The text has this: According to the present invention, we have developed methods for the efficient synthesis of amylin and amylin analogs which result in peptides of high purity which are substantially free of deletion peptides and other contaminating peptides and which show reproducibly high biological activity as measured by assays of its ability to cause resistance to insulin in vitro by inhibiting insulin-stimulated incorporation of labelled glucose into glycogen in isolated rat soleus muscle.
The present invention also provides synthetic human amylin produced by solid phase peptide synthesis which has an EC50 of about 2.5 nanomoles/liter±0.3 log units or less according to an assay of insulin-stimulated incorporation of labelled glucose into glycogen in isolated rat soleus muscle. In an especially preferred aspect, such synthetic human amylin is substantially free of deletion and other contaminating peptides. […]

Like-named read-outs stand apart in the source and are kept apart here. Ends that are not written are not given here.

Regarding “Human Amylin (KCNTATCATQRLANFLVHSSNNFGAILSSTNVGSNTY-NH2; cysteine pairing not given here; UniProt P10997 34-70, looked up) [37-amino acid peptide with internal disulfide bond and C-terminal amide, made by solid phase peptide synthesis]”, the EC50 is under 5 nM (peptide at least about 95% pure after preparative RP-HPLC, read-out: EC50 as measured by soleus muscle assay) and at most 2.5 nM (±0.3 log units, inhibition of insulin-stimulated glycogen synthesis, read-out: EC50 according to an assay of insulin-stimulated incorporation of labelled glucose into glycogen in isolated rat soleus muscle).
